Assay results from publication PMC2363649, “MDR1 causes resistance to the antitumour drug miltefosine” (British Journal of Cancer, 2001).
pKd: −log10 of the molar value.

Columns and labels:
ABC transporter YvcC = target: T1, ABC transporter YvcC (Bacillus subtilis, UniProt O06967); assay: binding Kd (data not shown; method not stated)
T1 construct: gene bmrA
T1 sequence (O06967 1-589): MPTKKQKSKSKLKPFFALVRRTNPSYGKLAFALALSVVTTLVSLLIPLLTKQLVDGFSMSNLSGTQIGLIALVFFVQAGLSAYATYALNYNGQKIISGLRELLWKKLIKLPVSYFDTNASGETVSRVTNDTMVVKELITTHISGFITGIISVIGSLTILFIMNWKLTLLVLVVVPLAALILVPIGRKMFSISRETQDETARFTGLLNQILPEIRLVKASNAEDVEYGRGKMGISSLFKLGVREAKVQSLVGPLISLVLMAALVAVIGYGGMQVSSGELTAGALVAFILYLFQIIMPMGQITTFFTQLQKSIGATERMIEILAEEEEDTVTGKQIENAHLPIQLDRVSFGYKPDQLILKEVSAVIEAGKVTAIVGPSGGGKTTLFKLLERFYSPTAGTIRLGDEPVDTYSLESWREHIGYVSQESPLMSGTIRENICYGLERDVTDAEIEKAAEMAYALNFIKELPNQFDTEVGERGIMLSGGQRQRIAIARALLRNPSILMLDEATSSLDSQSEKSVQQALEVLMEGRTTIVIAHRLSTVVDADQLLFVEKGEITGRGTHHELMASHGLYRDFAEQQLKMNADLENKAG

P-glycoprotein (PGP) = target: T2, P-glycoprotein (PGP) (Cricetulus griseus, UniProt P21448); assay: MIANS-PGP fluorescence quenching titration; assay type: binding
T2 construct: gene ABCB1; highly purified PGP from CHR B30 cells, labelled with MIANS at two conserved cysteine residues within the Walker A motifs
T2 sequence (P21448 whole entry): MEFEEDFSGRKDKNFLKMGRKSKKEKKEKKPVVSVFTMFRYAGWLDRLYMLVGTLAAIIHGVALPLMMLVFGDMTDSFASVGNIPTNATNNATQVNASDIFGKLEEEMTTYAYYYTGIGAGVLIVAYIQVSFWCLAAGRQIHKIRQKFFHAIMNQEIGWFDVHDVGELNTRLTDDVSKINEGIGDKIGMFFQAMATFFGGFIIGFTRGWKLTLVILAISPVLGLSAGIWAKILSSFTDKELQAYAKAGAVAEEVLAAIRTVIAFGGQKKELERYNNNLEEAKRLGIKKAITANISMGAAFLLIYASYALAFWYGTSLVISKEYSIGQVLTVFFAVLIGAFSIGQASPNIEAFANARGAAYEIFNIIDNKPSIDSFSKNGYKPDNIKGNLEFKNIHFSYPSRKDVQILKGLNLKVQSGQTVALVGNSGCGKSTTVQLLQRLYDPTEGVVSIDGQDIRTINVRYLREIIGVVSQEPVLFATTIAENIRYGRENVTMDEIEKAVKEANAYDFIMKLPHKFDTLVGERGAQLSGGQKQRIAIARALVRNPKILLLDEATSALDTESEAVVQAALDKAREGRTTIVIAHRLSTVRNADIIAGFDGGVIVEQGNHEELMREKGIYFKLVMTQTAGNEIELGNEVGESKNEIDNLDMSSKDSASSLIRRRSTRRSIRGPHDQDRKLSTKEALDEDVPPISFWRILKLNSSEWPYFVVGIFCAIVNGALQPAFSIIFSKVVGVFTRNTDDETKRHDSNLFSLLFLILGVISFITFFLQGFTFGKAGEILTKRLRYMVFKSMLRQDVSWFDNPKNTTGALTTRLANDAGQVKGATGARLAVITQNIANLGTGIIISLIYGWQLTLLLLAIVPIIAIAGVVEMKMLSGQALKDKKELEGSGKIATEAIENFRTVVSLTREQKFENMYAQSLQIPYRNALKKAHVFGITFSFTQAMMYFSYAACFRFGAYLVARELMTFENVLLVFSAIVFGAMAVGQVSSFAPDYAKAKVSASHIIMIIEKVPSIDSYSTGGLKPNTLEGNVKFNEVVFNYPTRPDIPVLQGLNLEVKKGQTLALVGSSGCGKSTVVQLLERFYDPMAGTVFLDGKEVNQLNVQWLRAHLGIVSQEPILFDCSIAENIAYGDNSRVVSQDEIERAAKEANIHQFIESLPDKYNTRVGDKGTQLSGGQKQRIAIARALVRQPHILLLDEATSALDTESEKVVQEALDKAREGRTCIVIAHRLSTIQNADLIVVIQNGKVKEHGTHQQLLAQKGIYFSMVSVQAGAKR

**Q.** With CCCCCCCCCCCCCCCCOP(=O)([O-])OCC[N+](C)(C)C [miltefosine] as the compound, how does the pKd (ABC transporter YvcC) read?
**A.** 5.52 to 5.70

**Q.** What about the pKd (P-glycoprotein (PGP)) of the same compound?
**A.** ~5.15
